# Assay results: US20180110218A1, “Substrate for Controlling Flies and Other Insects, Method for Manufacturing Thereof and Use of Said Substrate as Animal Litter” (priority 2016, published 2018)
# “Also recorded” adds a separate entry of the source.
# Key:
# Type in all cases: in vivo
# [1] = test system: Musca domestica larvae and pupae; test: Test 1: pupal mortality of M. domestica, wood shavings impregnated with pyriproxyfen/diflubenzuron formulations on rabbit manure
# Text: (§1) The organic matter used was rabbit excrement in the first two tests with pyriproxyfen, due to its increased availability and high infestation with fly larvae. […] In both cases, manure with high levels of fly larvae infestation was selected in order to obtain a suitable number of larvae per test. […]
# (§2) In the case of the tests of litters with pyriproxyfen, after 5 days of exposure (enough time for the larvae to progress to the pupal stage), the pupae were separated in plastic cups covered with a net, waiting for the adults to emerge. Once the adults emerged, the unviable pupae and the adults that emerged (healthy and malformed) were counted in order to calculate the mortality rate for each case. […]
# [2] = test system: Musca domestica larvae and pupae; test: Test 5: mortality of M. domestica, wood shavings impregnated with cyromazine formulations on horse manure
# Experimental: The absorbent substrate impregnated were wood shavings of the “Great Northern” pine tree, which are the most commonly used for horse litters.
# For the effectiveness studies, the formulations for impregnating the wood shavings were applied manually by means of a container with a spray gun. Several sprayings were carried out, turning the wood shavings halfway to ensure that they were homogeneously impregnated.
# The organic matter used was rabbit excrement in the first two tests with pyriproxyfen, due to its increased availability and high infestation with fly larvae. For tests 3 and 4 with pyriproxyfen and the test carried out with cyromazine, horse excrement was used since it is the main object on which the product is applied. In both cases, manure with high levels of fly larvae infestation was selected in order to obtain a suitable number of larvae per test. […]
# In the case of the test with cyromazine, after the 5 days of exposure the dead pupae and larvae were separated. Once the adults emerged, the dead larvae, the unviable pupae and the adults that emerged (healthy and malformed) were counted in order to calculate the mortality rate for each case. […]
# [3] = test system: Musca domestica larvae and pupae; test: Test 4: pupal mortality of M. domestica, wood shavings impregnated with low-concentration pyriproxyfen formulations on horse manure
# Text: as §1, §2
compound,measurement,setting,value
O=C(NC(=O)c1c(F)cccc1F)Nc1ccc(Cl)cc1 [diflubenzuron],mortality results / effectiveness (in words),[1],effective in low doses
Nc1nc(N)nc(NC2CC2)n1 [cyromazine],effectiveness (in words),[2],effective in low doses
CC(COc1ccc(Oc2ccccc2)cc1)Oc1ccccn1 (stereo not drawn) [pyriproxyfen],effectiveness as a pupicide (in words),[3],good effectiveness; also recorded: effective in low doses
